Assay: xn = mol fraction of the nth substance listed
Settings: 100 kPa, Liquid; for viscosity: Falling or rolling sphere viscometry; for mass density: Vibrating tube method

CC(C)C1CCCCC1 [(1-methylethyl)cyclohexane] + OCC1CC1
Settings	mass density [kg/m3]	viscosity [mPa·s]
293.15 K, x1 = 0.0996	891.76	–
293.15 K, x1 = 0.1003	–	3.277
293.15 K, x1 = 0.1991	874.27	2.592
293.15 K, x1 = 0.2995	859.61	2.18
293.15 K, x1 = 0.3996	847.35	1.862
293.15 K, x1 = 0.4993	836.86	1.621
293.15 K, x1 = 0.5997	827.69	–
293.15 K, x1 = 0.619	–	1.406
293.15 K, x1 = 0.7011	819.71	1.288
293.15 K, x1 = 0.7967	812.9	1.192
293.15 K, x1 = 0.9026	806.51	1.115
293.15 K, x1 = 1	802.14	1.093
298.15 K, x1 = 0.0996	887.68	–
298.15 K, x1 = 0.1003	–	2.876
298.15 K, x1 = 0.1991	870.17	2.286
298.15 K, x1 = 0.2995	855.52	1.937
298.15 K, x1 = 0.3996	843.25	1.668
298.15 K, x1 = 0.4993	832.77	1.463
298.15 K, x1 = 0.5997	823.61	–
298.15 K, x1 = 0.619	–	1.281
298.15 K, x1 = 0.7011	815.65	1.18
298.15 K, x1 = 0.7967	808.85	1.099
298.15 K, x1 = 0.9026	802.52	1.033
298.15 K, x1 = 1	798.24	1.016
303.15 K, x1 = 0.0996	883.58	–
303.15 K, x1 = 0.1003	–	2.523
303.15 K, x1 = 0.1991	866.05	2.028
303.15 K, x1 = 0.2995	851.39	1.729
303.15 K, x1 = 0.3996	839.12	1.499
303.15 K, x1 = 0.4993	828.64	1.325
303.15 K, x1 = 0.5997	819.5	–
303.15 K, x1 = 0.619	–	1.17
303.15 K, x1 = 0.7011	811.56	1.085
303.15 K, x1 = 0.7967	804.8	1.015
303.15 K, x1 = 0.9026	798.52	0.958
303.15 K, x1 = 1	794.34	0.947
308.15 K, x1 = 0.0996	879.43	–
308.15 K, x1 = 0.1003	–	2.227
308.15 K, x1 = 0.1991	861.89	1.807
308.15 K, x1 = 0.2995	847.23	1.551
308.15 K, x1 = 0.3996	834.96	1.356
308.15 K, x1 = 0.4993	824.49	1.207
308.15 K, x1 = 0.5997	815.37	–
308.15 K, x1 = 0.619	–	1.075
308.15 K, x1 = 0.7011	807.46	1.001
308.15 K, x1 = 0.7967	800.75	0.941
308.15 K, x1 = 0.9026	794.49	0.893
308.15 K, x1 = 1	790.43	0.886
313.15 K, x1 = 0.0996	875.25	–
313.15 K, x1 = 0.1003	–	1.912
313.15 K, x1 = 0.1991	857.7	1.617
313.15 K, x1 = 0.2995	843.04	1.399
313.15 K, x1 = 0.3996	830.77	1.231
313.15 K, x1 = 0.4993	820.31	1.103
313.15 K, x1 = 0.5997	811.21	–
313.15 K, x1 = 0.619	–	0.99
313.15 K, x1 = 0.7011	803.33	0.927
313.15 K, x1 = 0.7967	796.66	0.876
313.15 K, x1 = 0.9026	790.46	0.834
313.15 K, x1 = 1	786.51	0.831
318.15 K, x1 = 0.1003	–	1.706
318.15 K, x1 = 0.1991	–	1.454
318.15 K, x1 = 0.2995	–	1.266
318.15 K, x1 = 0.3996	–	1.121
318.15 K, x1 = 0.4993	–	1.012
318.15 K, x1 = 0.619	–	0.916
318.15 K, x1 = 0.7011	–	0.861
318.15 K, x1 = 0.7967	–	0.817
318.15 K, x1 = 0.9026	–	0.782
318.15 K, x1 = 1	–	0.782
